According to patent US5792742A, “Fibrin-binding peptide fragments of fibronectin” (New York University, priority 1994, dated 1998):

Tests used:
[1] = tested on: fibrin; assay: Fibrin-SEPHAROSE affinity chromatography (binding and elution); design: species or system bovine
Experimental: Bovine fibrinogen was cross-linked to CNBr-activated SEPHAROSE™ (5 mg/ml beads) according to the manufacturer's instructions. Coupled fibrinogen was subsequently converted to fibrin by incubation with human thrombin to a final concentration of 5 NIH units/ml and 100 K.I. (kallikrein inhibitory) units/ml of aprotinin (in 0.05M Tris-HCI buffer, pH 7.6, containing 0.1M NaCl and 0.01M EDTA) for three hours, at room temperature (Gold, et al. (1983) Biochemistry 22, 4113-4119).
1.0M NaCl in 0.05M tris buffer, pH 8.0.
The fibrin-binding activity of the proteolytically derived 25.9 kDa fragment of Fn was determined by its ability to bind to a fibrin affinity matrix. […] FBB was used to equilibrate and wash the column. Following warming of the column to 22° C., the column was washed with FBB until absorbance at 280 nm (A280) was less than 0.01, and bound protein eluted with 0.05M Tris-HCl, 0.5M NaCl, 6M urea buffer, pH 7.6.
The module (500 μg/1.0 ml) was incubated for 4 hours (while rotating) at 4° C. in the presence of 1.0 ml fibrin-SEPHAROSE™ (5 mg fibrin/ml SEPHAROSE™ beads) equilibrated in […] Tris-HCl, 0.1M NaCl buffer, pH 7.6.
The 11 KDa peptide (50 μg/0.206 ml) was radiolabeled using the IODO-BEAD method (Pierce Chemical). The peptide was added to one IODO-BEAD in the presence of 100 μCi ^125 I (17.4 Ci/mg, New England Nuclear) and incubated on ice for 10 minutes. The bead was removed and the free ^125 I removed by chromatography through a PD10 column containing SEPHADEX™ G-25 (Pharmacia). […] The radioiodinated 11 kDa fibrin-binding peptide (500 μg/1.5 ml) was combined with 1 ml of fibrin-SEPHAROSE™ (5 mg fibrin/ml beads) equilibrated with 50 mM Tris-HCl, 0.1M NaCl buffer, pH 7.6, and rotated for 4 hours, at 4° C. The mixture was poured onto a disposable column (0.6 cm×8.0) and the unbound protein washed through. The column was equilibrated to room temperature and washed with the equilibration buffer.

[2] = tested on: fibrin
Experimental: Since the anti-Fn detection system described for the ELISA above could not be used in Fn competition assays employing the intact Fn molecule or the 25.8 kDa proteolytic fragment, purified Fn was biotinylated using water soluble NHS-LC-Biotin (Pierce Chemm. Co.; according to the manufacturer's instructions) and binding to fibrin detected by alkaline phosphatase conjugated streptavidin (diluted 1/500 in FBBT/BSA) for 1 hour at 22° C., followed by the addition of p-nitrophenyl phosphate, as described above. To ensure that the biotinylation of the Fn had not affected its ability to bind to fibrin, fibrin-binding activity was tested by incubating increasing concentrations of biotinylated Fn (10-300 ng/0.1 ml FBB) with the fibrin-coated wells (200 ng) and detected (see FIG. 28A) using alkaline phosphatase-conjugated streptavidin and the reaction developed as described for Direct Elisa.
To compare the relative fibrin-binding affinities of the ^4 F1.^5 F1 recombinant module pair and the 25.9 kDa proteolytic fragment (^1 F1-^5 F1) with that of the native Fn molecule, these purified proteins were competed with biotinylated plasma Fn for binding to fibrin coated wells and the extent of inhibition of binding assessed by incubation with alkaline phosphatase-conjugated streptavidin. […] Biotinylated Fn (100 ng/0.1 ml FBB: 2.3 nM) was combined with increasing concentrations (0-10 μM) of either unlabeled Fn, the 25.9 kDa proteolytic fragment, or the separate ^4 F1.^5 F1, and ^10 F1 recombinant modules and incubated with the fibrin-coated microtiter wells for 1 hour at 22° C. […] Bound biotinylated Fn was quantitated as described above.

[3] = previously shown (Baron et al. 1990); cited from earlier work
[4] = Heparin affinity chromatography; format: binding; conditions: NaCl gradient in 0.05M tris buffer, pH 8.0
Description: Upon warming the column to room temperature, a 25.9 kDa fragment was eluted with FBB (Peak a, FIG. 3). […] 1.0M NaCl in 0.05M tris buffer, pH 8.0. The yield of the 11 kDa fragment from the intact molecule was approximately 5% (w/w). This is the same as the theoretical yield. The extinction coefficient has been determined to be approximately 4.5, based on a comparison between A280 and protein concentration determination by Coomassie Protein Assay (Pierce Chemical Co.).

25.9 kDa fragment: 25.9 kDa N-terminal proteolytic fibrin-binding fragment of fibronectin (^1 F1-^5 F1), residues 17-246 of SEQ ID NO:1
% of protein applied eluted on warming the column to 22° C. (room temperature) ([1]; FBB buffer): approximately 8% | % of protein applied eluted with 0.5M NaCl, 6.0M urea buffer ([1]; after warming to 22° C.): approximately 17% | % of protein applied retained by fibrin-SEPHAROSE ([1]; binding at 4° C., 500 μg applied): 25% | % of protein applied retained by fibrin-Sepharose with increasing amounts applied ([1]; increasing amounts applied to a fixed volume of fibrin-Sepharose): 25% | relative affinity for fibrin (from elution conditions) ([1]; temperature change vs denaturing conditions (6M urea or 50% ethylene glycol) for elution): lower affinity | fold higher concentration over intact Fn needed for 50% inhibition [2]: 7.5 fold | maximal inhibition of biotinylated Fn binding to fibrin ([2]; 10 μM of protein (5,000 molar excess)): 75% | IC50 ([2]; read-out: IC50, 50% inhibition of binding of biotinylated Fn to fibrin, biotinylated Fn 2.3 nM, 200 ng fibrin, 1 hour 22° C.): 150 nM | Ki ([2]; read-out: KI estimated from IC50 (Cheng and Prussoff)): 145 nM | heparin-binding activity, affinity [3]: intermediate | NaCl concentration at elution from heparin affinity chromatography [4]: 0.25 M
